Article PMC3966885, “F9 Fimbriae of Uropathogenic Escherichia coli Are Expressed at Low Temperature and Recognise Galβ1-3GlcNAc-Containing Glycans” (PLoS ONE, 2014)

Target: T1, F9 fimbriae (F9 adhesin) (Escherichia coli, UniProt A0A0H2V7F6)
T1 construct: gene ydeQ; whole F9 fimbriae (six-gene operon c1931-c1936, plasmid pF9, ara promoter) over-expressed on GFP-labelled E. coli K-12 MG1655fim (MS428); mature adhesin 280 aa, N-terminal lectin domain 160 aa
Experiment: glycan array with whole GFP-labelled F9 over-expressing E. coli
Assay type: cell-based
Settings: glycan printed on super epoxy slide; PBS with 2 mM MgCl2 and CaCl2, room temperature; also used free at 50 μM as competitor

T1 sequence (A0A0H2V7F6 entry or part of it): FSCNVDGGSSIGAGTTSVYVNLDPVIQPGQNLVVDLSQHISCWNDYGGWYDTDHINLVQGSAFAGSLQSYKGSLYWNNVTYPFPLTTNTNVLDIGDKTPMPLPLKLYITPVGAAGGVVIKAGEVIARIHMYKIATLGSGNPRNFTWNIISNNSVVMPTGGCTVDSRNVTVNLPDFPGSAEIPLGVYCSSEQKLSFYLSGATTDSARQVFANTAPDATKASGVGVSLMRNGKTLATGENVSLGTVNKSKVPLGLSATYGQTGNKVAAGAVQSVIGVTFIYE

## CC(=O)N[C@H]1[C@H](O[C@H]2[C@@H](O)[C@@H](CO)O[C@@H](O[C@H]3[C@H](O)[C@@H](O)C(O)O[C@@H]3CO)[C@@H]2O)O[C@H](CO)[C@@H](O)[C@@H]1O[C@@H]1O[C@H](CO)[C@H](O)[C@H](O)[C@H]1O (stereo partly shown) [lacto-N-tetraose, Galβ1-3GlcNAcβ1-3Galβ1-4Glc]
  glycan array with whole GFP-labelled F9 over-expressing E. coli: Of the glycans that were bound by F9 fimbriae, lacto-N-tetraose displayed the highest affinity
